Test results reported in PMC12091851, “Replacing a Cereblon Ligand by a DDB1 and CUL4 Associated Factor 11 (DCAF11) Recruiter Converts a Selective Histone Deacetylase 6 PROTAC into a Pan‐Degrader” (Chemmedchem, 2025).

Experiments:
HDAC1 = HDAC1 (Homo sapiens, UniProt Q13547); test: Immunoblot HDAC1 degradation in MM.1S cell lysates; type: cell-based; parameters: endogenous in cells; host or cells: MM.1S; settings: MM1.S, MM.1S cells, 24 h, read-out: maximal degradation (Dmax) HDAC1
Experimental: (§1) Figure 6 Examination of HDAC isoform degradation. MM.1S cells were treated with the indicated compounds (10 μM) or vehicle (DMSO) for 24 h. HDAC1, 2, 4, and 6 levels were analyzed by immunoblotting. (A) Representative images from a total of n=3 biological replicates.
(§2) 2.5. Aqueous Stability Assay
(§3) For stability testing in aqueous solution, a 10-fold concentrated DMSO solution of the respective compounds was diluted in DPBS to generate a 10 µM concentration (final DMSO content of 10%).
(§4) Samples of the aqueous solutions were taken after 0, 24, 48, and 72 h at room temperature and the amounts of the parental compound and potential fragments were monitored by HPLC gradient A (see 3.1 General Information). […]
(§5) Afterwards, proteins were transferred with the Trans -Blot Turbo Transfer System (Catalog# 1704150, Bio-Rad) to Immobilon-FL PVDF membranes (Catalog# IPFL00005, Mill ipore Merck, Burlington, MA, USA) at 1.0 A for 30 min and treated with 5% milk-powder solution for 1 h at room temperature under slight agitation. […] The ChemiDoc XRS+ System (Catalog# 1708265 , Bio-Rad) was used for detection and Image Lab Software 6.1 (Bio-Rad) for quantification. […]
(§6) In vitro inhibitory activities against HDAC1, 2 , and 6 were measured using a previously published protocol.[3] In vitro inhibitory activities against HDAC4 were measured using a previously published protocol with slight modifications. […]

[1] = Aqueous stability assay in DPBS buffer (HPLC); type: physicochemical; settings: DPBS pH 7.4, 10% DMSO, room temperature, 72 hours
Experimental: and A6. Compounds were diluted in DPBS buffer (pH = 7.4; final DMSO concentration: 10%) and the remaining compound content was analyzed by HPLC. The peak area at 0 h was used for normalization.
Mean ± standard deviation of n = 2 replicates.
Figure S4. Analysis of time dependent degradation by 1j of HDAC1 (A) and HDAC6 (B) by Simple Western™ immunoassay analysis of MM.1S cell lysates. MM.1S cells were treated with 1j (10 µM) or vehicle (DMSO) for the indicated time period. Quantification of protein levels presented as mean ± standard deviation of n = 3 biological replicates. Si gnificance compared to vehicle: * = p≤0.05 , […]
as §2, §3
(§7) Samples of the aqueous solutions were taken after 0, 24, 48, and 72 h at room temperature and the amounts of the parental compound and potential fragments were monitored by HPLC gradient A (see 3.1 General Information). The peak area of the 0 h sample was used for normalization. All compounds were tested in duplicates and GraphPad Prim was used for evaluation and data visualization.
The cell lysis was performed as descripted in 3.2. Simple Western Immunoassay. […]
as §5, §6

HDAC4 = HDAC4 (Homo sapiens, UniProt P56524); test: Immunoblot HDAC4 degradation in MM.1S cell lysates; type: cell-based; parameters: endogenous in cells; host or cells: MM.1S; settings: MM1.S, MM.1S cells, 24 h, read-out: maximal degradation (Dmax) HDAC4
Chain of HDAC4 (P56524 whole entry, canonical isoform): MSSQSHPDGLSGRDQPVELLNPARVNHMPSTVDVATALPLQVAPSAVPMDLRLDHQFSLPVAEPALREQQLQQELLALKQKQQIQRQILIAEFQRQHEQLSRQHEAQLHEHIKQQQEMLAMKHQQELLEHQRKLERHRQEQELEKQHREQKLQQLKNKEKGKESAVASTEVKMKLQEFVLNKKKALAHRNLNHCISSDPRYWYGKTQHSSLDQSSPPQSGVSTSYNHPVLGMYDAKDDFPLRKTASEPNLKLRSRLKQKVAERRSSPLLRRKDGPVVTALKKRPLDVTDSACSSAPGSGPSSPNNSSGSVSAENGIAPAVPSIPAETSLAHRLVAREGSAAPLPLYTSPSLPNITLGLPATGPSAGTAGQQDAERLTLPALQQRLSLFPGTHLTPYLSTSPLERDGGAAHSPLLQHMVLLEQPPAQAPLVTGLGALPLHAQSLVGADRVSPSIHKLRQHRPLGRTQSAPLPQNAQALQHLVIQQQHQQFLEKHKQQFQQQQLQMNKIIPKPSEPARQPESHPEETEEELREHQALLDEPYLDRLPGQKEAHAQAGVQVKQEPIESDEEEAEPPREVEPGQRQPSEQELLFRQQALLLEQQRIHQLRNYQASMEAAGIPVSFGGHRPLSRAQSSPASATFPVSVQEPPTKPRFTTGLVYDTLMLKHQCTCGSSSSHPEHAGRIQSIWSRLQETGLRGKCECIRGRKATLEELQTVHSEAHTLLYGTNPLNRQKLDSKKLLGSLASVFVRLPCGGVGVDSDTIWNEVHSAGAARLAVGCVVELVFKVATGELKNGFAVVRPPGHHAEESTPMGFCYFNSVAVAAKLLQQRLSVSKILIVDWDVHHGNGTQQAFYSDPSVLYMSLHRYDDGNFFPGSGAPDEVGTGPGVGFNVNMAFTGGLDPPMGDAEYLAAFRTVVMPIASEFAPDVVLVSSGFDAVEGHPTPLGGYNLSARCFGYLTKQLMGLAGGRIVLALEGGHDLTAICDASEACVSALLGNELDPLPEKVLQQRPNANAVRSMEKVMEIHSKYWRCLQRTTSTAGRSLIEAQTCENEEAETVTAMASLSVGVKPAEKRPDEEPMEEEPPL
Experimental: Figure 6 Examination of HDAC isoform degradation. MM.1S cells were treated with the indicated compounds (10 μM) or vehicle (DMSO) for 24 h. HDAC1, 2, 4, and 6 levels were analyzed by immunoblotting. (A) Representative images from a total of n=3 biological replicates. […]
The cell lysis was performed as descripted in 3.2. Simple Western Immunoassay. Samples were denatured by Laemmli 2× Concentrate (Catalog# S3401-10VL, Sigma-Aldrich) for 5 min at 95 °C, and Precision Plus Protein Unstained Standard was used as molecular weight marker (Catalog# 1610363, Bio-Rad, Hercules, CA, USA). SDS-PAGE was performed with 10 or 12% Mini-PROTEAN TGX Stain-Free Gel (Catalog# 458035, Bio -Rad) at 200 V for 50 min (Catalog# 458035, Bio -Rad).
as §5

HDAC1, 2, 4, and 6 = test: Immunoblot HDAC isoform degradation in MM.1S, all tested isoforms; type: cell-based, human; settings: MM.1S cells, 10 μM, 24 h
Experimental: as §1, §2, §3, §7
The cell lysis was performed as descripted in 3.2. Simple Western Immunoassay. Samples were denatured by Laemmli 2× Concentrate (Catalog# S3401-10VL, Sigma-Aldrich) for 5 min at 95 °C, and […]
Bio-Rad, Hercules, CA, USA). […]
6.1 (Bio-Rad) for quantification. […]
as §6

[2] = tested on: acetylated α-tubulin and histone H3; test: Cellular target engagement, immunoblot of acetylated α-tubulin and histone H3 in MM.1S; type: cell-based, human; settings: MM.1S cells, 10 μM, 24 h; compared to 2 and A6
Experimental: Moreover, the capability to reduce the enzymatic activity of HDACs was confirmed by a cellular target engagement assay. MM.1S cells were treated with the PROTACs and the level of acetylated HDAC substrate proteins was subsequently determined. Class I HDACs deacetylate histone H3, and thus hyperacetylation of histone H3 indicates class I HDAC inhibition. Conversely, hyperacetylation of α‐tubulin serves a marker of HDAC6 inhibition. Both hit compounds are capable of inhibiting class I and HDAC6 in a cellular environment, confirming effective target engagement in MM.1S cells (Figure 5). With regards to the HDAC6 inhibition, the trend of the enzyme inhibition data was thus confirmed. […]
as §4, §5

Chain of HDAC1 (Q13547 whole entry, canonical isoform): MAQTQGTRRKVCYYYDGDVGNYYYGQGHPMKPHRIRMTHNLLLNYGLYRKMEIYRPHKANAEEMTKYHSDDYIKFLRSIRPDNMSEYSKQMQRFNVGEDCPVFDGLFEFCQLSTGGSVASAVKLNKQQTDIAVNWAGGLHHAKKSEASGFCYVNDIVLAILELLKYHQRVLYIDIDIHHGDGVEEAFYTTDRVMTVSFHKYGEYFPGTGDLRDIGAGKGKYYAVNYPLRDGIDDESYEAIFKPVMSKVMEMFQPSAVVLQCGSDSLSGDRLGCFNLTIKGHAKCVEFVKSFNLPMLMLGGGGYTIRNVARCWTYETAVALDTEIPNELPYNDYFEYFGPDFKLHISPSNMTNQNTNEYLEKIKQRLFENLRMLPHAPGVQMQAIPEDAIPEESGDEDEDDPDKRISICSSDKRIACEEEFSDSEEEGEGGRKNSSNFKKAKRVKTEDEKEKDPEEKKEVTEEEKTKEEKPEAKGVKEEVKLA

SMILES | Dmax at 10 µM (HDAC1) [%] | decomposition / reduction in content in DPBS buffer [1] | Dmax at 10 µM (HDAC4) [%] | Dmax, all four tested isoforms / other HDAC isoforms (HDAC1, 2, 4, and 6) | histone H3 hyperacetylation [2]
O=C(CCCCCCNC(=O)c1ccc(N(C(=O)CCl)C(C(=O)NCc2ccccc2)c2ccc(Cl)c(Cl)c2)cc1)NO (centres unmarked) [Compound 2] | 74 | 31% | 40 | – | –
O=C(CCCCCCNC(=O)c1ccc(NC(=O)CCCCCCCCCCCN(C(=O)CCl)C(C(=O)NCc2ccccc2)c2ccc(Cl)c(Cl)c2)cc1)NO (centres unmarked) [Compound 1j] | 90 | more than 90% | 71 to 76 | 71–90% | more pronounced
